Assays:
[1] = cited from earlier work
[2] = printed as pH 7.8; cited from earlier work
[3] = system: E. coli ATCC strain no. 25922; assay: Bacterial growth inhibition assay (modified JIS Z2801: 2000); assay type: cell-based
Text: (§1) The Japanese Industrial Standard (JIS) Z2801: 2000 method was slightly modified to analyze antibacterial activity of treated films against food-borne pathogenic bacteria (Association JS., “Antimicrobial products: Test for Antimicrobial Activity and Efficacy,” Japanese Industrial Standard JIS Z 2801 (2000), which is hereby incorporated by reference its entirety). Briefly, a culture of E. coli ATCC strain no. 25922 and a culture of L. monocytogenes from a food isolate were stored in 20% glycerol at −80° C. until use. The L. monocytogenes strain was obtained from the Cornell Food Safety Laboratory Bacterial Strains Collection as FSL C1-0053 and originally isolated from a finished ready-to-eat dairy food product. The cultures were streaked on tryptic soy agar (TSA) and incubated at 37° C. for E. coli and 30° C. L. monocytogenes for 24 hours. An isolated colony from each plate was used to inoculate 12 mL of tryptic soy broth (TSB), which was incubated with shaking for 24 hours at 37° C. A 100 μL aliquot of each culture was used to inoculate 50 mL TSB, which was incubated with shaking for 24 hours at 37° C. to achieve a cell density of 10^9 CFU/mL, which was confirmed by plate count on TSA. Each culture was diluted to reach a starting concentration of 10^5 CFU/mL, also confirmed by plate count on TSA. Treated films were cut into 5×5 cm^2 squares and stored in sterile conditions after the ethanol wash described in the synthesis step. A 0.4 mL aliquot of each 10^5 CFU/mL culture was placed on the treated films and covered with a 4×4 cm^2 sterile PP film to create a sandwich. The PP cover was lightly pressed down with sterile tweezers to distribute the inoculum across the treated film and the sandwich was placed in a Petri dish. The Petri dish was placed in an airtight box containing paper towels saturated with 100 mL of filtered water to maintain a humid environment. The entire apparatus was incubated at 37° C. for 24 hours. After incubation, 10 mL of phosphate buffered saline (PBS, pH 7.4) solution was pipetted into each Petri dish and well mixed to disassemble the sandwich and dilute the inoculated broth. An aliquot was taken from each Petri dish and serially diluted with PBS buffer. A 100 μL aliquot of the appropriate dilution was plated in duplicate on TSA and incubated for 24 hours at 37° C. Plates with 30-300 CFU were counted, and the average plate count of the duplicate plates was recorded. Plate counts for treated films were subtracted from the average plate count of the control to determine inhibition of bacterial growth. The assay was performed on triplicate coupons from two independently extruded batches, totaling 6 replicates per treatment.
(§2) To determine the antimicrobial performance of free curcumin, the assay was repeated with curcumin powder added to the starting inoculum. Curcumin powder was first completely dissolved in ethanol to prepare 2 mg/mL and 0.2 mg/mL stock solutions. Stock solutions were diluted 10× in TSB to final concentrations of 200 μg/mL and 20 μg/mL curcumin, which was then inoculated to a 10^5 CFU/mL starting concentration of either E. coli or L. monocytogenes, confirmed by plate count. The procedure was repeated by replacing the curcumin stock solutions with absolute ethanol (10% v/v in TSB) to quantify any growth inhibition due to ethanol. […]

[4] = system: L. monocytogenes FSL C1-0053; assay: as above; assay type: cell-based
Text: as §1, §2

[5] = system: E. coli; details: against E. coli, previous studies; cited from earlier work

## COc1cc(/C=C/C(=O)CC(=O)/C=C/c2ccc(O)c(OC)c2)ccc1O [curcumin]
[1]
  water solubility: low
[2]
  pKa of the enolic hydrogen: 7.8
[3]; 20 μg/mL curcumin in TSB
  antibacterial function of free curcumin: did not display any antibacterial function
[3]; 10^5 CFU/mL inoculum, 37° C., 24 hours
  inhibition of bacterial growth compared to control: poor bacterial inhibition
[4]; 20 μg/mL curcumin in TSB, L. monocytogenes
  antibacterial function of free curcumin: did not display any antibacterial function
[4]; 200 μg/mL curcumin, partially fell out of solution in TSB
  inhibition of L. monocytogenes by free curcumin: 1.63±0.83 log (CFU/mL)
[4]; L. monocytogenes, 10^5 CFU/mL inoculum, 37° C., 24 hours
  inhibition of bacterial growth compared to control: poor bacterial inhibition
[5]
  minimum inhibitory concentration (MIC): 100 to 200 µg/mL

Source: patent publication US20250319640A1, “ACTIVE AND/OR INTELLIGENT PACKAGING MATERIALS CONTAINING RADICAL SCAVENGING LIGANDS” (CORNELL UNIVERSITY, priority 2022, published 2025)
